In US7018989B2, “Chemical compounds” (University College Cardiff Consultants, LTD, priority 1995, dated 2006):
Like-named read-outs stand apart in the source and are kept apart here.

Key:
III-B strain of HIV-1 = assay: microbe, parasite or virus in culture; type: cell-based
Outline: (§1)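 C8166 cells (4×10^4/well) in RPMI 1640 with 10% calf serum, mixed with 5-fold compound dilutions, then given 10 CCID50 HIV-1 III-B and kept 5–7 days. Viability of infected and uninfected cells measured by MTT-formazan; duplicates on at least two occasions, averaged.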

[1] = Toxicity in C8166 cells (MTT-Formazen); type: cell-based; details: human, Table 3
Outline: as §1

HIV-1 [2] = assay: Inhibition of HIV-1 in MT4 cells; type: cell-based; details: Human immunodeficiency virus 1, MT4; Table 6; mean of two or more repeat experiments; read-out: HIV1 MT4: EC50 for inhibition of HIV-1 in MT4 cells
Description: (§2) Cells were infected with HIV-1 as previously described [Balzarini et al. AIDS (1991), 5, 21–28]. Briefly, 5×10^5 cells per milliliter were infected with HIV-1 or HIV-2 at 100 CCID50 (50% cell culture infective dose) per milliliter of cell suspension. Then 100 μL of the infected cell suspension was transferred to microtiter plate wells and mixed with 100 μL of the appropriate dilutions of the test compounds. After 4 days giant cell formation was recorded microscopically in the HIV-infected cell cultures [CEM], and after 5 days the number of viable cells was determined by trypan blue staining of the HIV-infected cell cultures [MT4].
(§3) The data columns are, in order: • HIV1 MT4: EC50 in μM for inhibition of HIV-1 in MT4 cells. • HIV2 MT4: EC50 in μM for inhibition of HIV-2 in MT4 cells. • CC50 MT4: CC50 in μM for toxicity to MT-4 cells. • HIV1 CEM: EC50 in μM for inhibition of HIV-1 in CEM cells. • HIV2 CEM: EC50 in μM for inhibition of HIV-2 in CEM cells. • HIV2 CEM-TK-: EC50 in μM for inhibition of HIV-2 in CEM/TK^− cells. • CC50 CEM: CC50 in μM for toxicity to CEM cells. • EC50 MSV: EC50 in μM for inhibition of MSV • MCC MSV: Minimum cytotoxic concentration in MSV assay

HIV-2 [3] = assay: Inhibition of HIV-2 in MT4 cells; type: cell-based; details: Human immunodeficiency virus 2, MT4, read-out: HIV2 MT4: EC50 for inhibition of HIV-2 in MT4 cells
Description: as §2, §3

Toxicity to MT-4 cells = type: cell-based, human; details: human, mock-infected MT-4 cells; Table 6; mean of two or more repeat experiments; read-out: CC50 MT4: CC50 for toxicity to MT-4 cells
Description: as §2, §3

HIV-1 [4] = assay: microbe, parasite or virus in culture; details: Human immunodeficiency virus 1, CCRF-CEM
Outline: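 Trypan blue staining of MT-4 cultures on day 5 gave viable cell numbers; CEM cultures were checked microscopically for giant cells on day 4. Both cell types were infected at 100 CCID50/mL (5×10^5 cells/mL) and incubated with compound dilutions.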

HIV-2 [5] = assay: Inhibition of HIV-2 in CEM cells (giant cell formation); type: cell-based; details: Human immunodeficiency virus 2, CCRF-CEM, read-out: HIV2 CEM: EC50 for inhibition of HIV-2 in CEM cells
Outline: (§4)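 Infection used 100 CCID50 per mL on 5×10^5 cells/mL, followed by exposure to serial compound dilutions. Read-out: microscopic giant cell scoring after 4 days (CEM); trypan blue viable cell count after 5 days (MT-4).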

HIV-2 [6] = assay: Inhibition of HIV-2 in CEM/TK- cells; type: cell-based; details: Human immunodeficiency virus 2, CEM-TK(-)
Outline: as §4

Toxicity to CEM cells = type: cell-based, human; details: human, mock-infected CEM cells; Table 6; mean of two or more repeat experiments
HIV RT = HIV RT (Human immunodeficiency virus type 1 group M subtype B, UniProt P03366); assay: Inhibition of HIV reverse transcriptase; type: biochemical; details: Table 4
hog liver esterase = assay: Incubation with hog liver esterase; type: in vitro ADME; details: 1 mM, 37° C., Tris-HCl buffer containing 5 mM MgCl2
Description: This metabolites co-eluted with the predominant metabolite (X) that was found in the cell extracts after incubation of the intact cells with [^3H] 324. metabolite X corresponds to a compound of formula (10), wherein Y is oxygen, X^1 is NH, X^2 is oxygen, B is thymine, R^1 is Me, R^2 is hydrogen.

[7] = test system: Moloney Sarcoma Virus [MSV]; assay: MSV-induced tumour formation and survival in NMRI mice; type: in vivo; details: MSV infected mice
Description: Drug doses are 50[low ] or 200 [high] mg/kg/day given i.p. for 4 days starting 1 hour before MSV inoculation.
In Vivo Testing Inhibitory Effects of Test Compounds on the Initiation of MSV-Induced Tumour Formation in NRMI Mice and on the Survival of MSV Innoculated NMRI Mice.
Mice infected with Moloney Sarcoma Virus [MSV] were treated daily with either placebo, or d4T [at one of two doses] or with compound 324 at one of the same [equi-molar] doses.
Two- to three-day old NMRI mice (weighing—2 gram) were innoculated subcutaneously (s.c.) in the left hind leg with 50 μl MSV (100 foci forming units, as measured by in vitro determination of the virus-induced transformation of murine C3H embryo fibroblast cells). At 4 to 5 days post-infection, tumours develop and rapidly increase in volume upon further aging of the mice. Within 10 to 12 days post-infection, mice (then weighing—5 to 6 gram) die from the viral infection. Drug treatment started 1 hour prior to infection of the virus, and further compound administration was given daily i.p. for an additional 3 days. The mean day of tumour initiation (±standard deviation) and the mean day of survival of the mice (±standard deviation) was calculated and statistical significance of the average delay of tumour formation and the mean day of survival in the treated groups versus the untreated (control) group was assessed by two-tailed student's t-test.

## COC(=O)C(C)NP(=O)(OCC1C=CC(n2cc(C)c(=O)[nH]c2=O)O1)Oc1ccccc1 (centres unmarked) [Compound 324, 2′,3′-dideoxy-2′,3′-didehydrothymidine 5′-(phenyl N-methoxyalaninyl) phosphoramidate]
III-B strain of HIV-1; HIV1 in C8166 cells, Table 3
  Selectivity CC50/EC50 × 10^3: 46.9 × 10^3
III-B strain of HIV-1; Human immunodeficiency virus 1, C8166, Table 4, read-out: EC50 8166 HIV1
  EC50: 3.2 nM
III-B strain of HIV-1; Human immunodeficiency virus 1, HIV1 in C8166 cells, Table 3, read-out: Activity EC50
  EC50: 3.2 nM
[1]
  CC50: 150000 nM
HIV-1 [2]
  EC50: 81 nM
HIV-2 [3]
  EC50: 53 nM
Toxicity to MT-4 cells
  CC50 at 5 days: > 100000 nM
HIV-1 [4]; read-out: EC50 CEM HIV1
  EC50: 180 nM
HIV-1 [4]; read-out: HIV1 CEM: EC50 for inhibition of HIV-1 in CEM cells
  EC50: 75 nM
HIV-2 [5]
  EC50: 75 nM
HIV-2 [6]; read-out: EC50 CEM TK− HIV2
  EC50: 80 nM
HIV-2 [6]; read-out: HIV2 CEM-TK-: EC50 for inhibition of HIV-2 in CEM/TK^− cells
  EC50: 75 nM
Toxicity to CEM cells
  CC50: 100000 nM
HIV RT
  EC50: 50000 nM
Hog liver esterase
  metabolite formation with hog liver esterase: time-dependent formation of a metabolite was observed
[7]; high-dose (200 mg/kg/day i.p. for 4 days)
  effect on tumour appearance: significant effect
[7]; low dose (50 mg/kg/day i.p. for 4 days)
  effect on tumour appearance (first disease parameter): an effect
